Values quoted from earlier work, collected in US20070254070A1, “Encapsulating Plant Extracts Adsorbed and/or Absorbed in Precipitated Silica” (AXISS FRANCE S.A.S., priority 2004, published 2007).

Tested on: bacteria

Structure (SMILES): Cc1ccc(C(C)C)cc1O [carvacrol]
- action on bacteria: bactericidal
